No end group written: not given here.
Experiments:
Type in all cases: in vivo, Sprague-Dawley rats
[1] = system: rats with mild-moderate TBI; experiment: BrdU immunostaining, cell proliferation after controlled cortical impact TBI; details: 3 mg/kg i.v. at 24 h and 48 h post injury; examined 25 days after TBI; vs saline controls, p<0.05, n=7
Description: BrdU, an analog of thymidine, can be incorporated into the newly synthesized DNA of replicating cells during the S phase of the cell cycle, substituting for thymidine during DNA replication. BrdU immunostaining is commonly used to detect cell proliferation. To determine the effect of SEQ ID NO. 5 (3 mg/kg, i.v.) or saline on cell proliferation, BrdU (100mg/kg) was injected i.p. daily starting at day 1 after mild-moderate TBI and continued for 10 days after TBI to label newly generated cells. Twenty-five days after TBI, the animals were anesthetized and sacrificed. The brains were fixed in 4% paraformaldehyde and cut into seven equally spaced 2-mm coronal blocks using a rat brain matrix. […] 5-treated rats examined at 25 days after TBI, compared to the saline controls. […]
A large part of the functional recovery that occurs after brain injury is due to neurogenesis, and brain plasticity caused by anatomical and functional reorganization of the CNS. […] 5 on neurogenesis, the brain blocks containing the hippocampus were processed for vibratome sections (100 μm) followed by double fluorescence staining for endogenous cellular proliferation {BrdU positive cells (red) and MAP 2 (green) to identify newborn neurons in the ipsilateral dentate gyrus (DG) of the hippocampus. […] Quantitative measurements of immunostaining were performed by an observer blinded to the individual treatment status of the animals. […]

[2] = system: rats with mild-moderate TBI; experiment: BrdU/MAP-2 double fluorescence staining, neurogenesis after controlled cortical impact TBI; details: 3 mg/kg i.v. at 24 h and 48 h post injury; 25 days post injury; vs saline controls, p<0.05, n=7
From the text: (§1) A large part of the functional recovery that occurs after brain injury is due to neurogenesis, and brain plasticity caused by anatomical and functional reorganization of the CNS. To determine the effect of SEQ ID NO. 5 on neurogenesis, the brain blocks containing the hippocampus were processed for vibratome sections (100 μm) followed by double fluorescence staining for endogenous cellular proliferation {BrdU positive cells (red) and MAP 2 (green) to identify newborn neurons in the ipsilateral dentate gyrus (DG) of the hippocampus. Five sections with 100-μm intervals from the dorsal dentate gyms were used for immunohistochemical staining with the same antibody. Sections were blocked in a Tris-buffered saline solution containing 5% normal goat serum, 1% BSA and 0.05% Tween-20. […] Quantitative measurements of immunostaining were performed by an observer blinded to the individual treatment status of the animals. […] The cells with BrdU that clearly localized to the nucleus were counted as BrdU-positive cells. […] The fluorescent images were analyzed with a Bio-Rad MRC 1024 (argon and krypton) laser-scanning confocal imaging system mounted onto a Zeiss microscope (Bio-Rad, Cambridge, Mass.). […]
A controlled cortical impact (CCI) device was used to induce mild-moderate TBI. […] Velocity was measured with a linear velocity displacement transducer. […]

[3] = system: rats with mild-moderate TBI; experiment: Endothelial barrier antigen (EBA) staining, vascular density after controlled cortical impact TBI; details: 3 mg/kg i.v. at 24 h and 48 h post injury; 25 days after TBI; vs saline-treated rats, p<0.05, n=7
From the text: as §1, with “antibody.” for “antibody. Sections were blocked in a Tris-buffered saline solution containing 5% normal goat serum, 1% BSA and 0.05% Tween-20.”
Endothelial barrier antigen (EBA)-staining has been used to identify vascular structure in the brain after ischemic brain injury. […] 5-therapy on vessel proliferation and vascular density, quantitative measurement of Endothelial Barrier Antigen (EBA) staining was performed. […]

[4] = system: rats with mild-moderate TBI; experiment: Modified neurological severity score (mNSS) after controlled cortical impact TBI; details: 3 mg/kg i.v. at 24 h and 48 h post injury; Days 14-25 after TBI; vs saline-treated group, P<0.05
Description: (§2) A controlled cortical impact (CCI) device was used to induce mild-moderate TBI. Adult male (280-300 g) Sprague-Dawley rats (Harlan: Indianapolis, Ind.) were anesthetized intraperitoneally with xylazine (10 mg/kg body weight) and ketamine (40 mg/kg body weight). Rectal temperature was maintained at 37° C. using a feedback-regulated water-heating pad. The surgical area of the skull was prepared using germicidal povidone-iodine scrub followed by a 70% isopropyl alcohol rinse combinations, being careful to scrub from the center of the surgical site toward the periphery. Rats were placed in a stereotactic frame. […] Velocity was measured with a linear velocity displacement transducer. […] Neurological functional outcome was measured by the modified neurological severity score (mNSS), Morris Water Maze (MWM) and foot-fault test. mNSS is a composite of the motor (muscle status, abnormal movement), sensory (visual, tactile and proprioceptive) and reflex tests. […] If the animal reached the platform within 90 sec, the percentage of time traveled within the NE (correct) quadrant was calculated relative to the total amount of time spent swimming before reaching the platform and employed for statistical analysis. […] Rats were monitored continuously while in the tank. […] When animals inaccurately place a limb, the limb falls through one of the openings in the grid, which is counted as a foot fault. […]

[5] = system: rats with mild-moderate TBI; experiment: Morris Water Maze (MWM) after controlled cortical impact TBI; details: 3 mg/kg i.v. at 24 h and 48 h post injury; Days 23 to 25 post-injury; vs saline-treated group, P<0.05
Description: as §2

[6] = system: rats with mild-moderate TBI; experiment: Modified foot-fault test after controlled cortical impact TBI; details: 3 mg/kg i.v. at 24 h and 48 h post injury; up to 25 days after TBI; vs control group
Description: as §2

For “DPMSSTYIEELGKREVTIPPKYVALLPAVLLALLAP [SEQ ID NO. 5]”, the “number of BrdU-positive cells in the ipsilateral cortex and hippocampus” value [1] was “significantly increased”, the “number of newborn neurons (BrdU/MAP-2 positive) in the ipsilateral DG, per mm^2” value [2] was “significantly increased” and the “density (vessels/mm2) of EBA positive vessels in the injured cortex area” value [3] was “significantly increased”. For the same sequence, the “sensorimotor scores (mNSS)” value [4] was “significantly improved”, the “spatial learning and memory retention (percentage of time spent in the correct quadrant, MWM)” value [5] was “significant improvement” and the “neurological function assessed by the footfault test” value [6] was “no significant improvement”.

Reference: US20210145930A1, “MULTIPLE LAYER ARTICLE WITH INTERACTIVE REINFORCEMENTS LINEAR RIBBON FIBER REINFORCEMENT FOR COMPOSITE FORMS” (NeuroTheranostics, Inc., priority 2018, published 2021)
